Measured values published in PMC2782911 (Cancer, 2009).
Read-outs that look alike come from different tables or passages of the source.

How the values were obtained:
rat Slc5a8 = biological target: T1, rat Slc5a8 (Rattus norvegicus, UniProt D3Z9E5); test: Inhibition of [14C]nicotinate uptake via rat Slc5a8 expressed in HRPE cells; assay type: cell-based; conditions: read-out: inhibition of nicotinate uptake
T1 sequence (D3Z9E5 1-611): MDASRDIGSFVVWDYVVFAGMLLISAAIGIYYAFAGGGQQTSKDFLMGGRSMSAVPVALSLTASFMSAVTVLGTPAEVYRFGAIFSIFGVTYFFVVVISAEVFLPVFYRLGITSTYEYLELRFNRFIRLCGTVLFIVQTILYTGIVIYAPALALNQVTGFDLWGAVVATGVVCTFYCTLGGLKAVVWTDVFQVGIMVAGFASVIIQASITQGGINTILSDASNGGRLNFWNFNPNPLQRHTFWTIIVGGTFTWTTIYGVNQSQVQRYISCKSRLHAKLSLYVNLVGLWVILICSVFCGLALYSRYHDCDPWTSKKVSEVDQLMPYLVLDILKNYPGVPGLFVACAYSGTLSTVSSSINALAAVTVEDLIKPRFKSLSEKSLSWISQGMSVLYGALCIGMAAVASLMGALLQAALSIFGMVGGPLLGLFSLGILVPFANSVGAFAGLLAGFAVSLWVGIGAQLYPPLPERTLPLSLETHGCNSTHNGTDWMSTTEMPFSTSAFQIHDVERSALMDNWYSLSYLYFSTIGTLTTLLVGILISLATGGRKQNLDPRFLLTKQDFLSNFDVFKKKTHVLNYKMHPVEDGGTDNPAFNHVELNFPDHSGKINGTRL

mouse Slc5a8 = biological target: T2, mouse Slc5a8 (Mus musculus, UniProt Q8BYF6); test: Inhibition of [14C]nicotinate uptake via mouse Slc5a8 expressed in HRPE cells; assay type: cell-based; conditions: read-out: inhibition of nicotinate uptake
T2 sequence (Q8BYF6 1-611): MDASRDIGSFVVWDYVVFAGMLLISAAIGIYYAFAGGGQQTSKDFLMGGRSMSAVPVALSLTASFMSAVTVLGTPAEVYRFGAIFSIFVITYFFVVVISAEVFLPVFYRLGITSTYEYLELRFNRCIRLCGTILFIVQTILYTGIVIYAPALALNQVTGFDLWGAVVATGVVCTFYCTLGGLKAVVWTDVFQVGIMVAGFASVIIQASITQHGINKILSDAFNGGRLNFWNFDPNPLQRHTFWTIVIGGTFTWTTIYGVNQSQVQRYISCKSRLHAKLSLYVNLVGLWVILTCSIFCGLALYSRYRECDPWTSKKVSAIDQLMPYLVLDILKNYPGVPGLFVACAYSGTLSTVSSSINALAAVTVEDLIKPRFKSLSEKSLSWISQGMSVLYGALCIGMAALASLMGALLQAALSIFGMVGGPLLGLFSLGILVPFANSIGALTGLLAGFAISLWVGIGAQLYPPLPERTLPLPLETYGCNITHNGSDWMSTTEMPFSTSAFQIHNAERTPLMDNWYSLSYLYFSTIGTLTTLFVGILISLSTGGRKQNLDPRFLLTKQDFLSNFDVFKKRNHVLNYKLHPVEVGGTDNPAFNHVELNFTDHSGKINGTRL

human SLC5A8 [1] = biological target: T3, human SLC5A8 (Homo sapiens, UniProt Q8N695); test: Inhibition of [14C]nicotinate uptake via human SLC5A8 expressed in HRPE cells; assay type: cell-based
T3 sequence (Q8N695 1-610): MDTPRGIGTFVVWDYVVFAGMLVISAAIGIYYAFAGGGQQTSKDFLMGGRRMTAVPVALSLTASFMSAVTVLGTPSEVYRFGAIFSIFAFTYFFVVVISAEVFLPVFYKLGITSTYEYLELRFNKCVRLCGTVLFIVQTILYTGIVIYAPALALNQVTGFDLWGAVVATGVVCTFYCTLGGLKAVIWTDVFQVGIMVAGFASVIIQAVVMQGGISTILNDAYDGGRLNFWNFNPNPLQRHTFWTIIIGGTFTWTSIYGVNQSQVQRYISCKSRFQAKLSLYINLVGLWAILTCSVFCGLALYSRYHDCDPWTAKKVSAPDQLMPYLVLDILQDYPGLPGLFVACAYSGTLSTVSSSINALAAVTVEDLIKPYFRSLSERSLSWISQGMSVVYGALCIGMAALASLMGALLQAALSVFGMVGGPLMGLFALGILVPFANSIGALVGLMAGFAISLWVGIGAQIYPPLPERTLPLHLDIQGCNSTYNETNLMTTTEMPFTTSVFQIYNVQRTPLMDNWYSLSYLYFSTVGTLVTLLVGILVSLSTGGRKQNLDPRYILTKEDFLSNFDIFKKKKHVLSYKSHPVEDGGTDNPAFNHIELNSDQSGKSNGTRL

human SLC5A8 [2] = biological target: T3, human SLC5A8; test: Substrate-induced currents in X. laevis oocytes expressing human SLC5A8; assay type: cell-based; conditions: for inward currents in SLC5A8-expressing oocytes: 1 mM compound, in the presence of NaCl, not detectable in absence of Na+, -50 mV; for K0.5 (substrate concentration for half-maximal current): saturation kinetics of substrate-induced currents, human SLC5A8 oocytes
recombinant human HDAC1 = recombinant human HDAC1 (Homo sapiens, UniProt Q13547); test: Recombinant human HDAC1 activity assay; assay type: biochemical; conditions: for inhibition of HDAC1: 1 mM, recombinant human isoform
recombinant human HDAC3 = recombinant human HDAC3 (Homo sapiens, UniProt O15379); test: Recombinant human HDAC3 activity assay; assay type: biochemical; conditions: for inhibition of HDAC3: 1 mM, recombinant human isoform
MCF7 cells [3] = test: Colony formation assay in MCF7 cells; conditions: vector-transfected MCF7 cells, increasing concentrations, two weeks
MCF7 cells [4] = test: Apoptosis of MCF7 cells by FACS analysis
HDACs in MCF7 cells = test: HDAC activity in lysates of MCF7 cells cultured with compound; conditions: vector-transfected MCF7 cells cultured with 1 mM compound
recombinant human HDAC2 = recombinant human HDAC2 (Homo sapiens, UniProt Q92769); test: Recombinant human HDAC2 activity assay; assay type: biochemical; conditions: 1 mM, recombinant human isoform
recombinant human HDAC6 = biological target: T4, recombinant human HDAC6 (Homo sapiens, UniProt Q9UBN7); test: Recombinant human HDAC6 activity assay; assay type: biochemical; conditions: 1 mM, recombinant human isoform
T4 sequence (Q9UBN7 1-1215): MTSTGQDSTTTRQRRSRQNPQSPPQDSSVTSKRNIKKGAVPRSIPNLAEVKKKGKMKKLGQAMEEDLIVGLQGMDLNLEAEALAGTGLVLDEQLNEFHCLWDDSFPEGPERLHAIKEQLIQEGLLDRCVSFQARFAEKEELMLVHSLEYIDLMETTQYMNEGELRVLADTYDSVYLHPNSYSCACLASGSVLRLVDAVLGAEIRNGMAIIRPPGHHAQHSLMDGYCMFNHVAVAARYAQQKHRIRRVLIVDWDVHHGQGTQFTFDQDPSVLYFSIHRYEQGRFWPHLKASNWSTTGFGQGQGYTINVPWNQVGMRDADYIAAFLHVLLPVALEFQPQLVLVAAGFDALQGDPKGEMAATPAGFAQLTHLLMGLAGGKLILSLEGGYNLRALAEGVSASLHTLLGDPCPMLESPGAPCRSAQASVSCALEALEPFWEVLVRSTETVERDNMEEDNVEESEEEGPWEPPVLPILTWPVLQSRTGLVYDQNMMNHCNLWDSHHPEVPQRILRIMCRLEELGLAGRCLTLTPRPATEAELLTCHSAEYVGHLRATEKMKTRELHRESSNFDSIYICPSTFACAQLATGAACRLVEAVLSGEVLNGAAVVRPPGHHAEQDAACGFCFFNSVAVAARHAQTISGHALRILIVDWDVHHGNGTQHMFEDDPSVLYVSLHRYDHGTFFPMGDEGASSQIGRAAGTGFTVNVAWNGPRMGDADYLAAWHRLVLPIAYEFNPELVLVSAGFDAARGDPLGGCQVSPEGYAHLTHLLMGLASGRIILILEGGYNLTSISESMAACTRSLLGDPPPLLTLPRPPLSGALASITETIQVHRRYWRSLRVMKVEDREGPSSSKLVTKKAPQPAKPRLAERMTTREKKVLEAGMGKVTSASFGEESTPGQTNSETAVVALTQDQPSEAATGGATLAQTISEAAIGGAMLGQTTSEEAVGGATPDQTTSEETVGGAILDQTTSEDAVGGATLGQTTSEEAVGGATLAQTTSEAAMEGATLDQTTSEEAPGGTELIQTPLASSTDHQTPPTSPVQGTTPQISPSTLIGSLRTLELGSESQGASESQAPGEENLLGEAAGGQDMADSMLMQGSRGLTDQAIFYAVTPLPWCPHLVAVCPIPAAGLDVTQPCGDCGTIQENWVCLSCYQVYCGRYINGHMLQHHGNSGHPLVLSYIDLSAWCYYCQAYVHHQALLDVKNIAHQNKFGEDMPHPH

recombinant human HDAC5 = recombinant human HDAC5 (Homo sapiens, UniProt Q9UQL6); test: Recombinant human HDAC5 activity assay; assay type: biochemical; conditions: 1 mM, recombinant human isoform
recombinant human HDAC8 = biological target: T5, recombinant human HDAC8 (Homo sapiens, UniProt Q9BY41); test: Recombinant human HDAC8 activity assay; assay type: biochemical; conditions: 1 mM, recombinant human isoform
T5 sequence (Q9BY41 1-377): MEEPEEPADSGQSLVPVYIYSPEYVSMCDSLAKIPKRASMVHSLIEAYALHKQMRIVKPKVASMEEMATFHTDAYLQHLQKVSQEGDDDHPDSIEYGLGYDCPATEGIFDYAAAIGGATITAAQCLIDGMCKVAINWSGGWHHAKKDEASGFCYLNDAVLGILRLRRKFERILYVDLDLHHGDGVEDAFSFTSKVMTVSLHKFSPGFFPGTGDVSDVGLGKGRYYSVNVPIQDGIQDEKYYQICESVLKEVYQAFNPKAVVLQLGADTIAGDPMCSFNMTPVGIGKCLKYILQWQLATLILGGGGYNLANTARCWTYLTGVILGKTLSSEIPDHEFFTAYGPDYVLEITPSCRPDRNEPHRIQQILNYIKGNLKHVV

recombinant human HDAC9 = recombinant human HDAC9 (Homo sapiens, UniProt Q9UKV0); test: Recombinant human HDAC9 activity assay; assay type: biochemical; conditions: 1 mM, recombinant human isoform
[5] = MCF7 cells ectopically expressing SLC5A8, 1 mM
[6] = vector-transfected MCF7 cells, 1 mM
[7] = Na+-activation kinetics of 3-bromopyruvate-induced currents

Chain of recombinant human HDAC1 (Q13547 whole entry, canonical isoform): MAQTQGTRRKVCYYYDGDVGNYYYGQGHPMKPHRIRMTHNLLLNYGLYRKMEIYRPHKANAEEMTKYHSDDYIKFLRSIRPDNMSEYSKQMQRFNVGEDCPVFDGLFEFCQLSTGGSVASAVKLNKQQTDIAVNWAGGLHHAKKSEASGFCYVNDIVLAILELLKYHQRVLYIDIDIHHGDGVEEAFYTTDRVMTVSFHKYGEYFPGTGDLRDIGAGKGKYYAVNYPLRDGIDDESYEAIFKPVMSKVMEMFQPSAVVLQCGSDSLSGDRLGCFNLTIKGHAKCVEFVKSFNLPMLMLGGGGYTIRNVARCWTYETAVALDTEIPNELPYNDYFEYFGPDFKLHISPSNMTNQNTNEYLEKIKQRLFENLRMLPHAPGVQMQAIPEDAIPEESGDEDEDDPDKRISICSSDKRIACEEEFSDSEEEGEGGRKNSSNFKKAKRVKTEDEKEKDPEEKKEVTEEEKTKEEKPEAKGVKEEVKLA
Chain of recombinant human HDAC3 (O15379 whole entry, canonical isoform): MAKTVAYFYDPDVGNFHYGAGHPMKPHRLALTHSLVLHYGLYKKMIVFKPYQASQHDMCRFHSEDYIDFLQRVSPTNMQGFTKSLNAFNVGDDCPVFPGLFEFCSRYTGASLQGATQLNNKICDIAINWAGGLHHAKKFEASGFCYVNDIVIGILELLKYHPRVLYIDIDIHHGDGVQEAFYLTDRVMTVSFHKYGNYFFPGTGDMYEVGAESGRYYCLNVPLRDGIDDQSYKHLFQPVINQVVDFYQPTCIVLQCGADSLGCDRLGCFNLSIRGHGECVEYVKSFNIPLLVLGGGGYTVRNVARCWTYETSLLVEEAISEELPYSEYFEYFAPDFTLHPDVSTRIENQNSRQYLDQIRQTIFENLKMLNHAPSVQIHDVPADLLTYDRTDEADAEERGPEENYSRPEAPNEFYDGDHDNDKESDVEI
Chain of recombinant human HDAC3 (Q9Y618 395-489 partner limits assumed): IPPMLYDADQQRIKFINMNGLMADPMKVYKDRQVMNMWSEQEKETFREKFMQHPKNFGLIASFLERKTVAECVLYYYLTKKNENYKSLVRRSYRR
Chain of recombinant human HDAC2 (Q92769 whole entry, canonical isoform): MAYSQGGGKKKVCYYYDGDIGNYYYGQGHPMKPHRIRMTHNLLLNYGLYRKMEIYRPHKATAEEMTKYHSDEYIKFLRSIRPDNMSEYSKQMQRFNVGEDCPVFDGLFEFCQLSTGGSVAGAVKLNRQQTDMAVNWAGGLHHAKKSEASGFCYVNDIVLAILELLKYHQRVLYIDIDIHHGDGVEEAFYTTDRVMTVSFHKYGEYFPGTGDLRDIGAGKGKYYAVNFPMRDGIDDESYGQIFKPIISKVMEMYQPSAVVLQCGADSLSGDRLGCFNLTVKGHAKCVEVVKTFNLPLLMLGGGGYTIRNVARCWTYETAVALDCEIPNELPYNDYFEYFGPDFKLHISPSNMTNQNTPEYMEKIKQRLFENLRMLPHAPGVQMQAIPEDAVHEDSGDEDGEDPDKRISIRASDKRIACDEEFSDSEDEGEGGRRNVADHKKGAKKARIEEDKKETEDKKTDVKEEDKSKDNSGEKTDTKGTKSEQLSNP
Chain of recombinant human HDAC5 (Q9UQL6 whole entry, canonical isoform): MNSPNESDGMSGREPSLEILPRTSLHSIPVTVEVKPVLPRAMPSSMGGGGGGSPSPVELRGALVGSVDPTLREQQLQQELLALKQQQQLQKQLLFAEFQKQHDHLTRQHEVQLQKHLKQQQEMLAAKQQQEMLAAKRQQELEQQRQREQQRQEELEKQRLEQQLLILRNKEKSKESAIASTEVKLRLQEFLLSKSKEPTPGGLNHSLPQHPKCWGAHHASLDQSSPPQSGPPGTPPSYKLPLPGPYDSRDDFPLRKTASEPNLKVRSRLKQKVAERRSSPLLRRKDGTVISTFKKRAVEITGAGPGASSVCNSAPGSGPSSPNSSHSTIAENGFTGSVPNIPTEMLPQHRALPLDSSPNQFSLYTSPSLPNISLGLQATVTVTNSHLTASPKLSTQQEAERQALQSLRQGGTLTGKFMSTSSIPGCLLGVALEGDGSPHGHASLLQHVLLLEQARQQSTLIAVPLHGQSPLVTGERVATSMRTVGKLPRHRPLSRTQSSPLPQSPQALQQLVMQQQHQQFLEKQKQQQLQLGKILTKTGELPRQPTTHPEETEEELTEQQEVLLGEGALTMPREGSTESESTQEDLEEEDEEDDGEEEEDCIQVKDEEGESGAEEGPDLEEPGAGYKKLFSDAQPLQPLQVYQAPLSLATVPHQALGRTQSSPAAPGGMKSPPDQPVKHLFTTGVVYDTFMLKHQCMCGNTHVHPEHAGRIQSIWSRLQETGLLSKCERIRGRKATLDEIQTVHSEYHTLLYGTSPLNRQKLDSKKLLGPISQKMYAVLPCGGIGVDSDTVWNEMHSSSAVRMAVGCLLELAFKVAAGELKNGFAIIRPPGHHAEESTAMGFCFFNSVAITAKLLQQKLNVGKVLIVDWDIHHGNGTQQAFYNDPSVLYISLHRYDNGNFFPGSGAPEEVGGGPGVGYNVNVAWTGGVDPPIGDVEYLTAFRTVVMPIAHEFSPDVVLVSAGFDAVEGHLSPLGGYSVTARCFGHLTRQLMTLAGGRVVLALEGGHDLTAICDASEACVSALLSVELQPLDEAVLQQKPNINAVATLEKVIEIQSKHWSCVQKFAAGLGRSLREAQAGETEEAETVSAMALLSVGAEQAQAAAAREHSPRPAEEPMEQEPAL
Chain of recombinant human HDAC9 (Q9UKV0 whole entry, canonical isoform): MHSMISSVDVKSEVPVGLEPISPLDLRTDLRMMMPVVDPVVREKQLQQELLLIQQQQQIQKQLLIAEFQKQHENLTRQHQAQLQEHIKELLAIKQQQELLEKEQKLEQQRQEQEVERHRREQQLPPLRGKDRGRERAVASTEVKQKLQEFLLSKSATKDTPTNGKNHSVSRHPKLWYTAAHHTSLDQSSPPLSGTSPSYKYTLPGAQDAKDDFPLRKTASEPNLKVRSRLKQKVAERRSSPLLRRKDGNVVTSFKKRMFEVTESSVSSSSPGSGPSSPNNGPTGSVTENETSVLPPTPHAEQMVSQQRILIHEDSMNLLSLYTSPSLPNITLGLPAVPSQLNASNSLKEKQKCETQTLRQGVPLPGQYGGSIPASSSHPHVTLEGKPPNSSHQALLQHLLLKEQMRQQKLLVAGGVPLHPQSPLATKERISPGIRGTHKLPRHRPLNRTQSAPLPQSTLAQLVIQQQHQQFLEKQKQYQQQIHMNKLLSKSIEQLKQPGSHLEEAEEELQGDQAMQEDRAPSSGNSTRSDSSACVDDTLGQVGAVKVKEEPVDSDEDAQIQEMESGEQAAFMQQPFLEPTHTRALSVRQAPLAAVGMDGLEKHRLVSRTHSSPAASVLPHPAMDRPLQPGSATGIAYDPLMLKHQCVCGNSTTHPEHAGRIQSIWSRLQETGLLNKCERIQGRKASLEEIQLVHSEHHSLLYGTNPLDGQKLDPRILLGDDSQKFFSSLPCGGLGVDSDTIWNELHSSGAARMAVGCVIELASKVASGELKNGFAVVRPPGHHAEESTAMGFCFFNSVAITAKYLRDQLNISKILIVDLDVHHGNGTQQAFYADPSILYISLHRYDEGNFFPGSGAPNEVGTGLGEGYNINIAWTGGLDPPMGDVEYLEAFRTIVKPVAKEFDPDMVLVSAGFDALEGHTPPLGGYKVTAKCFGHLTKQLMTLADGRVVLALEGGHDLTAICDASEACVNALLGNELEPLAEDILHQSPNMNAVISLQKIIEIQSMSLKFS

CC(=O)C(=O)O [pyruvate]
inhibition at 1000 µM (rat Slc5a8): 60% | inhibition at 1000 µM (mouse Slc5a8): 75% | IC50 (human SLC5A8 [1]): 652 ± 139 µM | inhibition at 1000 µM (human SLC5A8 [1]; HRPE, read-out: inhibition of nicotinate uptake): 55% | inward currents in SLC5A8-expressing oocytes (human SLC5A8 [2]): induced inward currents | substrate-induced current (human SLC5A8 [2]; 1 mM, four oocytes, NaCl buffer): 215 ± 45 nA | K0.5 (substrate concentration for half-maximal current) (human SLC5A8 [2]): 312 ± 16 µM | IC50 (recombinant human HDAC1): 30 ± 14 µM | inhibition of HDAC1 (recombinant human HDAC1): inhibited HDAC1 and HDAC3 preferentially | IC50 (recombinant human HDAC3): 40 ± 11 µM | inhibition of HDAC3 (recombinant human HDAC3): inhibited HDAC1 and HDAC3 preferentially | colony formation (cell viability) (MCF7 cells [3]): affected only minimally | apoptosis (FACS) (MCF7 cells [4]; [5]): induced marked apoptosis | apoptosis (FACS) (MCF7 cells [4]; [6]): not affected | change in HDAC activity (HDACs in MCF7 cells): no change in HDAC activity

O=C(O)C(=O)CBr [3-bromopyruvate]
IC50 (human SLC5A8 [1]; read-out: IC50 for the inhibition of human SLC5A8 (nicotinate uptake), human SLC5A8 in HRPE cells, [14C]nicotinate 15 μM, 15 min, means ± S.E.): 32 ± 9 µM | inward currents in SLC5A8-expressing oocytes (human SLC5A8 [2]): induced inward currents | current induced relative to current induced by pyruvate (human SLC5A8 [2]; 1 mM, pyruvate-induced current taken as 100%, four oocytes): approximately 50% | Hill coefficient for the activation of transport by Na+ (human SLC5A8 [2]; [7]): 1.4 ± 0.2 | K0.5 value for Na+ to activate the transport process (human SLC5A8 [2]; [7]): 32 ± 4 mM | transportable substrate or blocker of SLC5A8 (human SLC5A8 [2]; conclusion from Na+-dependent inward currents at 1 mM): transportable substrate | K0.5 (substrate concentration for half-maximal current) (human SLC5A8 [2]): 495 ± 25 µM | inhibition of HDAC1 (recombinant human HDAC1): marked inhibition | inhibition of HDAC3 (recombinant human HDAC3): marked inhibition | inhibition of HDAC2 (recombinant human HDAC2): inhibited to a lesser, but significant, extent | inhibition of HDAC6 (recombinant human HDAC6): inhibited to a lesser, but significant, extent | effect on HDAC5 (recombinant human HDAC5): no effect | effect on HDAC8 (recombinant human HDAC8): no effect | effect on HDAC9 (recombinant human HDAC9): no effect | colony formation (cell viability) (MCF7 cells [3]): affected only minimally | apoptosis (FACS) (MCF7 cells [4]; [5]): induced marked apoptosis | apoptosis (FACS), added effect after siRNA silencing (MCF7 cells [4]; MCF7 cells with HDAC1 or HDAC3 silenced by siRNA, then 3-bromopyruvate 1 mM 48 h): did not have any added effect | apoptosis (FACS) after siRNA silencing (MCF7 cells [4]; MCF7 cells with HDAC2 silenced by siRNA, 3-bromopyruvate 1 mM 48 h): did not cause apoptosis | apoptosis (FACS) (MCF7 cells [4]; [6]): not affected | change in HDAC activity (HDACs in MCF7 cells): no change in HDAC activity
